Data published in patent US20050222275A1 (priority 2001, published 2005).
Read-outs that look alike come from different tables or passages of the source.

Columns and labels:
[1] = target: PrP^Sc (Mesocricetus auratus, UniProt P04273); type: in vivo, hamster; conditions: IC-inoculated, DMSO 14-end group, brain homogenate
[2] = in vivo; cited from earlier work
[3] = tested on: CJD patients; conditions: human, in vivo
[4] = tested on: PrP^Sc; conditions: human, in vivo
[5] = tested on: Scrapie (IC) infected Hamsters; type: in vivo, Syrian hamsters; conditions: for Incubation period: IC scrapie-infected hamsters, 7.5% (w/v) DMSO in drinking water, median; for Percentage of infectivity (%): relative to control
[6] = tested on: caseic amyloidosis; conditions: mouse, in vivo, po; cited from earlier work
[7] = target: T1, Aβ peptide (Homo sapiens, UniProt P05067); conditions: cited from earlier work
T1 construct: Aβ peptide intermediate with a high β-sheet content

[8] = tested on: Scrapie (IP) infected Hamsters; conditions: for Incubation period: IP scrapie-infected hamsters, 7.5% (w/v) DMSO in drinking water
[9] = in vivo, po; cited from earlier work
[10] = tested on: scrapie-infected neuroblastoma cells (ScN2a); conditions: cited from earlier work
[11] = tested on: amyloidotic diseases; conditions: human, in vivo; cited from earlier work
[12] = tested on: amyloid fibrils; conditions: cited from earlier work

PrP^Sc (Mesocricetus auratus, UniProt P04273), sequence (P04273 23-231 limits assumed): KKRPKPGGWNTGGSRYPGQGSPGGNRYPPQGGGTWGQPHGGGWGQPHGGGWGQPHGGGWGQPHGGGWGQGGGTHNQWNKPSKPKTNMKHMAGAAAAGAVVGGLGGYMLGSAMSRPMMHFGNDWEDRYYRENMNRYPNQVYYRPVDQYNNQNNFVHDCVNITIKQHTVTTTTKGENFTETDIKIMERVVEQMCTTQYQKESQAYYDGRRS
T1 sequence (P05067 672-711 limits assumed): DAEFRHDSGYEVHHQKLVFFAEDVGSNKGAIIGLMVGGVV

C[S+](C)[O-] [DMSO, dimethyl sulfoxide]
PrP^Sc in sample from untreated animal relative to DMSO-treated animal (band intensity) ([1]; 90 dpi): about 10 times | PrP in DMSO-treated animals at 90-110 dpi compared with untreated animals at 60 dpi [1]: equivalent | PrP^Sc in DMSO-treated animals at 110 dpi compared with untreated animals at 90 dpi (final stages) [1]: equivalent amounts | side effects [2]: no serious side effects | cerebellar syndrome during the treatment [3]: progressed | cognitive decline during the treatment [3]: no further cognitive decline | deterioration, medical evaluation [3]: slower than expected | titubation and tremor, medical evaluation [3]: improvement | secreted PrP^Sc in the urine [4]: continuously increasing amounts | Incubation period ([5]; 0-14 dpi): 85 days | Incubation period ([5]; 0-end dpi): 101 days | Incubation period ([5]; 14-end dpi): 107 days | Incubation period ([5]; 55-end dpi): 91 days | effect on incubation time compared with control group ([5]; IC, 0-14 group): significant deleterious effect | Infectivity (Log I.D 50) ([5]; IC, DMSO treatment 0-14 dpi): 7.1 Log I.D 50 | Variance from control group [P < 0.05] ([5]; IC, DMSO treatment 0-14 dpi): + ([+] means statistically significant difference [p < 0.05]) | Percentage of infectivity (%) ([5]; IC, DMSO treatment 0-14 dpi): 1258% | Infectivity (Log I.D 50) ([5]; IC, DMSO treatment 0-end dpi): 4.9 Log I.D 50 | Variance from control group [P < 0.05] ([5]; IC, DMSO treatment 0-end dpi): + ([+] means statistically significant difference [p < 0.05]) | Percentage of infectivity (%) ([5]; IC, DMSO treatment 0-end dpi): 3.16% | Infectivity (Log I.D 50) ([5]; IC, DMSO treatment 14-end dpi): 4.5 Log I.D 50 | Variance from control group [P < 0.05] ([5]; IC, DMSO treatment 14-end dpi): + ([+] means statistically significant difference [p < 0.05]) | Percentage of infectivity (%) ([5]; IC, DMSO treatment 14-end dpi): 3.16% | Infectivity (Log I.D 50) ([5]; IC, DMSO treatment 55-end dpi): 6.4 Log I.D 50 | difference from control group in incubation time ([5]; IC, DMSO-treated from 55 dpi-end): no statistically significant difference | incubation time for the disease compared with control group ([5]; IC, treatment plans 0-end or 14-end): statistically significant increase | development of the disease [6]: prevented the development of the disease | formation of Aβ peptide intermediate with a high β-sheet content [7]: block the formation | Incubation period ([8]; 0 - end dpi): 127.6 days | Incubation period ([8]; 28 - end dpi): 126.6 days | Incubation period ([8]; 55 - end dpi): 136.8 days | Variance from control group [P < 0.05] ([8]; IP, DMSO treatment 0 - end dpi): + ([+] means statistically significant difference [p < 0.05]) | Variance from control group [P < 0.05] ([8]; IP, DMSO treatment 28 - end dpi): + ([+] means statistically significant difference [p < 0.05]) | Variance from control group [P < 0.05] ([8]; IP, DMSO treatment 55 - end dpi): + ([+] means statistically significant difference [p < 0.05]) | overall effect for the animals treated with DMSO ([8]; IP, all treatment plans of Table 2): overall beneficial effect | beneficial effect on longevity ([8]; IP, groups 0-end and 28-end): marginal | longevity ([8]; IP, treated only from 55 dpi onwards): most remarkable longevity | adverse DMSO effects ([8]; hamsters, DMSO in drinking water): weight loss | time to peak concentration [9]: 4 h | formation of PrP^Sc from newly synthesized PrP^C [10]: interfered with the formation of PrP^Sc | patients showing clinical improvement [11]: about 50% | urine of patients after DMSO [11]: contains material that can form fibrils | assembly of amyloid fibrils [12]: blocks the assembly of amyloid fibrils | disassembly of preexisting fibrils [12]: does not interfere
